Test results reported in patent US9204653B2, “5-fluoro pyrimidine derivatives” (DOW AGROSCIENCES LLC, priority 2008, dated 2015).
Where two headings read alike, the source gives them in different places.

Tested on: Mycosphaerella graminicola; Anamorph: Septoria tritici; Bayer Code SEPTTR
Test: Leaf blotch of wheat, foliar fungicide treatment, one day protectant (1DP) or three day curative (3DC)
Format: in vivo, Septoria tritici on wheat plants (variety Yuma)
Settings: Zymoseptoria tritici, percent disease control rating
[1] = 24 h, one day protectant (1DP), read-out: SETTTR 1DP 25 ppm
[2] = 24 h, one day protectant (1DP), read-out: SEPTTR 1DP 100 ppm
[3] = 72 h, three day curative (3DC), read-out: SEPTTR 3DC 25 ppm
[4] = 72 h, three day curative (3DC), read-out: SEPTTR 3DC 100 ppm

| SMILES | pest or weed control at 25 ppm [1] [%] | pest or weed control at 100 ppm [2] [%] | pest or weed control at 25 ppm [3] [%] | pest or weed control at 100 ppm [4] [%] |
| --- | --- | --- | --- | --- |
| CN(C)/C=N/c1nc(OC(=O)c2ccccc2F)ncc1F [Compound 58] | 76 to 100 | 76 to 100 | 76 to 100 | 76 to 100 |
| O=C(NCc1ccccc1)Nc1nc(OCc2ccc(F)cc2)ncc1F [Compound 59] | 0 to 25 | 0 to 25 | 0 to 25 | 26 to 50 |
| Nc1nc(OCc2ccc(F)c(C(F)(F)F)c2)ncc1F [Compound 60] | 76 to 100 | 76 to 100 | 76 to 100 | 76 to 100 |
| Cn1ccc(COc2ncc(F)c(NC(=O)NCc3ccccc3F)n2)n1 [Compound 64] | 0 to 25 | 0 to 25 | 0 to 25 | 26 to 50 |
| COc1ccc(/C=N/Nc2nc(OCc3cccc(OC)c3)ncc2F)cc1 [Compound 65] | 26 to 50 | 51 to 75 | 26 to 50 | 51 to 75 |
| CCOc1cccc(COc2ncc(F)c(N)n2)c1 [Compound 66] | 76 to 100 | 76 to 100 | 76 to 100 | 76 to 100 |
| C[C@@H](Oc1ncc(F)c(N)n1)c1ccc(Br)cc1 [Compound 70] | 26 to 50 | 76 to 100 | 26 to 50 | 76 to 100 |
| CCOC(=O)Nc1nc(OCc2ccccc2)ncc1F [Compound 71] | 76 to 100 | 76 to 100 | 76 to 100 | 76 to 100 |
| C/C(=N\Oc1ncc(F)c(N)n1)c1ccc(F)cc1 [Compound 72] | 76 to 100 | 76 to 100 | 76 to 100 | 76 to 100 |
| N#Cc1ccc(COc2ncc(F)c(N)n2)cc1 [Compound 74] | 51 to 75 | 76 to 100 | 0 to 25 | 0 to 25 |
| COc1ccc(COc2ncc(F)c(NC(=S)NCc3ccccc3F)n2)cc1F [Compound 75] | 26 to 50 | 76 to 100 | 76 to 100 | 76 to 100 |
| Cn1c(COc2ncc(F)c(N)n2)cc2sccc21 [Compound 76] | 26 to 50 | 26 to 50 | 26 to 50 | 26 to 50 |
| COc1cccc(COc2ncc(F)c(NN3CCN(C)CC3)n2)c1 [Compound 77] | 0 to 25 | 76 to 100 | 26 to 50 | 76 to 100 |
| Cc1cccc(COc2ncc(F)c(N)n2)n1 [Compound 78] | 76 to 100 | 76 to 100 | 76 to 100 | 76 to 100 |
| Cn1ccc(COc2ncc(F)c(NC(=O)Nc3ccccc3F)n2)n1 [Compound 81] | 0 to 25 | 0 to 25 | 0 to 25 | 0 to 25 |
| CC(Oc1ncc(F)c(N)n1)c1cccc(Oc2ccccc2)n1 (stereo not drawn) [Compound 82] | 26 to 50 | 26 to 50 | 0 to 25 | 26 to 50 |
| CCCC(Oc1ncc(F)c(N)n1)c1ccc(F)cc1 (stereo not drawn) [Compound 83] | 76 to 100 | 76 to 100 | 76 to 100 | 76 to 100 |
| COc1cccc(COc2ncc(F)c(NSc3ccccc3[N+](=O)[O-])n2)c1 [Compound 85] | 26 to 50 | 76 to 100 | 76 to 100 | 76 to 100 |
| COc1ccccc1COc1ncc(F)c(NC(=O)Cc2ccccc2)n1 [Compound 86] | 26 to 50 | 51 to 75 | 0 to 25 | 0 to 25 |
| CC(Oc1ncc(F)c(NCO)n1)c1ccc(F)cc1 (stereo not drawn) [Compound 88] | 26 to 50 | 76 to 100 | 26 to 50 | 76 to 100 |
| CN(C)/C=N/c1nc(OS(=O)(=O)c2cccs2)ncc1F [Compound 89] | 76 to 100 | 76 to 100 | 76 to 100 | 76 to 100 |
| O=[N+]([O-])c1ccccc1SNc1nc(OCc2cc(Cl)cc(Cl)c2)ncc1F [Compound 90] | 76 to 100 | 76 to 100 | 26 to 50 | 51 to 75 |
| Nc1nc(OCc2cc(F)c(F)c(F)c2)ncc1F [Compound 93] | 76 to 100 | 76 to 100 | 76 to 100 | 76 to 100 |

| SMILES | pest or weed control at 25 ppm [1] [%] | pest or weed control at 100 ppm [2] [%] | pest or weed control at 25 ppm [3] [%] | pest or weed control at 100 ppm [4] [%] |
| --- | --- | --- | --- | --- |
| CCC(C)C(=O)Oc1ncc(F)c(/N=C/N(C)C)n1 (stereo not drawn) [Compound 94] | 76 to 100 | 76 to 100 | 76 to 100 | 76 to 100 |
| CC(C)(C)Oc1ccc(COc2ncc(F)c(N)n2)cc1 [Compound 95] | 76 to 100 | 76 to 100 | 76 to 100 | 76 to 100 |
| CNC(=O)/C(=N/OC)c1ccccc1COc1ncc(F)c(N)n1 [Compound 96] | 0 to 25 | 0 to 25 | 0 to 25 | 0 to 25 |
| CCC(/C=N/Nc1nc(OCc2cccc(OC)c2)ncc1F)CC [Compound 97] | 0 to 25 | 51 to 75 | 0 to 25 | 0 to 25 |
| O=C(NCc1ccccc1F)Nc1nc(OCc2cccc(F)c2)ncc1F [Compound 98] | 0 to 25 | 0 to 25 | 0 to 25 | 0 to 25 |
| CCCCCCOc1ncc(F)c(NCO)n1 [Compound 99] | 0 to 25 | 76 to 100 | 0 to 25 | 51 to 75 |
| Nc1nc(SCc2ccc(F)cc2)ncc1F [Compound 100] | 0 to 25 | 0 to 25 | 0 to 25 | 0 to 25 |
| CC(C)(C)OC(=O)Nc1nc(OCc2ccc(F)cc2)ncc1F [Compound 101] | 51 to 75 | 51 to 75 | 0 to 25 | 0 to 25 |
| Cc1ccc(COc2ncc(F)c(N(N)c3ccccc3)n2)cc1 [Compound 102] | 0 to 25 | 0 to 25 | 0 to 25 | 26 to 50 |
| C[C@H](Oc1ncc(F)c(N)n1)c1ccc(Br)cc1 [Compound 103] | 76 to 100 | 76 to 100 | 51 to 75 | 76 to 100 |
| Nc1nc(OCc2nc3ccccc3s2)ncc1F [Compound 104] | 76 to 100 | 76 to 100 | 76 to 100 | 76 to 100 |
| Fc1cnc(OCc2ccccc2)nc1N/N=C/C1CC1 [Compound 105] | 0 to 25 | 0 to 25 | 0 to 25 | 0 to 25 |
| Nc1nc(OCCCC2CCCC2)ncc1F [Compound 106] | 0 to 25 | 0 to 25 | 0 to 25 | 26 to 50 |
| CC(=O)Nc1nc(OCc2cccc(F)c2)ncc1F [Compound 107] | 76 to 100 | 76 to 100 | 76 to 100 | 76 to 100 |
| Cn1ccc(COc2ncc(F)c(/N=C/N3CCOCC3)n2)n1 [Compound 108] | 76 to 100 | 76 to 100 | 76 to 100 | 76 to 100 |
| COc1cccc(COc2ncc(F)c(N(N)C3CCCCC3)n2)c1 [Compound 111] | 0 to 25 | 0 to 25 | 0 to 25 | 0 to 25 |
| CN(C)/C=N/c1nc(OC(=O)OCc2ccccc2)ncc1F [Compound 112] | 76 to 100 | 76 to 100 | 76 to 100 | 76 to 100 |
| COc1ccc(Oc2ncc(F)c(NCO)n2)cc1 [Compound 113] | 51 to 75 | 76 to 100 | 0 to 25 | 26 to 50 |
| CCCNC(=O)Nc1nc(OCc2ccn(C)n2)ncc1F [Compound 114] | 0 to 25 | 0 to 25 | 0 to 25 | 0 to 25 |
| Fc1cnc(OCc2ccccc2)nc1-n1ccnc1 [Compound 115] | 76 to 100 | 76 to 100 | 76 to 100 | 76 to 100 |
| O=C(NCc1ccccc1F)Nc1nc(OCc2cccs2)ncc1F [Compound 116] | 0 to 25 | 0 to 25 | 0 to 25 | 0 to 25 |
| O=[N+]([O-])c1ccccc1SNc1nc(OCc2cccc(F)c2)ncc1F [Compound 117] | 26 to 50 | 51 to 75 | 26 to 50 | 26 to 50 |
